According to the NIST ThermoML archive (doi:10.1021/je900064e):
Where “and” joins values, the source holds several entries; their conditions need not be identical. Identical values can stand only once.

Assays:
[1] = 101.33 kPa, Liquid; for speed of sound: Sing-around technique in a fixed-path interferometer
[2] = φn = volume fraction of the nth substance listed; conditions: 101 kPa, Liquid, φ1 = 0.5

CN(CCO)CCO [N-methyldiethanolamine]
[1]
Conditions | speed of sound [m/s]
288.15 K | 1598.8
293.15 K | 1583.1
298.15 K | 1564.1
303.15 K | 1546
308.15 K | 1531
313.15 K | 1516.1
318.15 K | 1503.2
323.15 K | 1490.4

[1], Vibrating tube method
Conditions | mass density [kg/m3]
288.15 K | 1044.32
293.15 K | 1040.59
298.15 K | 1036.79
303.15 K | 1033.06
308.15 K | 1029.26
313.15 K | 1025.45
318.15 K | 1021.62
323.15 K | 1018.22

CCO [ethanol] + O
[2]
Conditions | mass density | speed of sound [m/s]
288.15 K | 930.86 kg/m3 | 1546.7
293.15 K | 927.08 kg/m3 | 1534.1
298.15 K | 923.22 kg/m3 | 1521.1
303.15 K | 919.31 kg/m3 | 1507.9
308.15 K | 915.32 kg/m3 | 1494.5
313.15 K | 911.27 kg/m3 | 1480.9
318.15 K | 908.03 kg/m3 and 907.3 kg/m3 | 1467
323.15 K | 904.32 kg/m3 and 903.71 kg/m3 | 1452.9

OCCN(CCO)CCO [triethanolamine]
[1]
Conditions | mass density [kg/m3] | speed of sound [m/s]
288.15 K | 1126.19 | 1631.1
293.15 K | 1123.42 | 1623.9
298.15 K | 1120.99 | 1614.5
303.15 K | 1118.21 | 1604.5
308.15 K | 1115.38 | 1595.5
313.15 K | 1112.57 | 1587
318.15 K | 1109.78 | 1578.8
323.15 K | 1106.93 | 1570.6
